According to PubChem BioAssay AID328 (DTP/NCI, 2004):
Toxic doses and inconclusive results are not listed. The calls were made as follows: active = survival T/C of 150% or more; inactive = T/C below 125% in these data.

Test system: BDF1 mice, P388 leukemia ip, median survival T/C
Assay: NCI In Vivo Anticancer Drug Screen. Data for tumor model P388 Leukemia (intraperitoneal) in B6D2F1 (BDF1) mice
Conditions: endpoint: median survival time, higher = longer survival
Procedure, shortened: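 Survival ratio, drug arm over vehicle arm, in mice with a transplanted tumour.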

[1] = dose: 100.0 mg/kg/injection, schedule: Q04DX003 (ip), vehicle: Klucel (hydroxypropylcellulose) (HPC)
[2] = dose: 200.0 mg/kg/injection, schedule: Q04DX003 (ip), vehicle: Klucel (hydroxypropylcellulose) (HPC)
[3] = dose: 50.0 mg/kg/injection, schedule: Q04DX003 (ip), vehicle: saline
[4] = dose: 100.0 mg/kg/injection, schedule: Q01DX009 (ip), vehicle: saline
[5] = dose: 100.0 mg/kg/injection, schedule: Q04DX003 (ip), vehicle: saline
[6] = dose: 200.0 mg/kg/injection, schedule: Q01DX009 (ip), vehicle: saline
[7] = dose: 400.0 mg/kg/injection, schedule: Q01DX009 (ip), vehicle: saline

Measured: T/C

CC1(c2cccc([N+](=O)[O-])c2)OCCO1
inactive: dose: 100.0 mg/kg/injection, schedule: Q01DX009 (ip), vehicle: other 109 % of control | dose: 100.0 mg/kg/injection, schedule: Q04DX003 (ip), vehicle: other 100 % of control | dose: 200.0 mg/kg/injection, schedule: Q01DX009 (ip), vehicle: other 100 % of control | dose: 200.0 mg/kg/injection, schedule: Q04DX003 (ip), vehicle: other 95 % of control | dose: 400.0 mg/kg/injection, schedule: Q01DX009 (ip), vehicle: other 100 % of control | dose: 400.0 mg/kg/injection, schedule: Q04DX003 (ip), vehicle: other 91 % of control

O=Cc1cn[nH]c1-c1ccccc1
inactive: dose: 100.0 mg/kg/injection, schedule: Q01DX009 (ip), vehicle: Klucel (hydroxypropylcellulose) (HPC) 92 % of control | [1] 87 % of control | dose: 200.0 mg/kg/injection, schedule: Q01DX009 (ip), vehicle: Klucel (hydroxypropylcellulose) (HPC) 88 % of control | [2] 87 % of control

COc1cc2c(c(OC)c1OC)CCc1cnoc1-2
inactive: dose: 50.0 mg/kg/injection, schedule: Q01DX009 (ip), vehicle: saline with Tween-80 107 % of control | dose: 100.0 mg/kg/injection, schedule: Q01DX009 (ip), vehicle: saline with Tween-80 95 % of control | dose: 200.0 mg/kg/injection, schedule: Q01DX009 (ip), vehicle: saline with Tween-80 97 % of control | dose: 400.0 mg/kg/injection, schedule: Q01DX009 (ip), vehicle: saline with Tween-80 92 % of control

COc1ccc(C[C@H](N)C(=O)NC2C(CO)OC(n3cnc4c(N(C)C)ncnc43)C2O)cc1 (stereo not given in full)
inactive: dose: 25.0 mg/kg/injection, schedule: Q04DX003 (ip), vehicle: saline 98 % of control | [3] 109 % of control | [4] 100 % of control | [5] 105 % of control

Cc1c(C(=O)O)nc(/C=C/C(Cl)(Cl)Cl)[nH]c1=O
inactive: dose: 25.0 mg/kg/injection, schedule: Q04DX003 (ip), vehicle: Klucel (hydroxypropylcellulose) (HPC) 102 % of control | dose: 50.0 mg/kg/injection, schedule: Q04DX003 (ip), vehicle: Klucel (hydroxypropylcellulose) (HPC) 100 % of control | [1] 115 % of control | [2] 103 % of control | dose: 400.0 mg/kg/injection, schedule: Q04DX003 (ip), vehicle: Klucel (hydroxypropylcellulose) (HPC) 116 % of control

CN(CCCCN(C)CCOS(C)(=O)=O)CCOS(C)(=O)=O
active: dose: 0.8 mg/kg/injection, schedule: Q04DX003 (ip), vehicle: saline 177 % of control | dose: 1.2 mg/kg/injection, schedule: Q04DX003 (ip), vehicle: saline 172 % of control | dose: 1.8 mg/kg/injection, schedule: Q04DX003 (ip), vehicle: saline 154 % of control

NC(=S)N/N=C\c1c[nH]c2nccnc12
inactive: dose: 25.0 mg/kg/injection, schedule: Q01DX009 (ip), vehicle: water 106 % of control | dose: 50.0 mg/kg/injection, schedule: Q01DX009 (ip), vehicle: water 92 % of control | dose: 100.0 mg/kg/injection, schedule: Q01DX009 (ip), vehicle: water 100 % of control | dose: 400.0 mg/kg/injection, schedule: Q01DX009 (ip), vehicle: water 86 % of control

BrC1C2CC(c3ccccc32)C1Br (stereo not given)
inactive: dose: 100.0 mg/kg/injection, schedule: Q01DX001 (ip), vehicle: saline 109 % of control | [4] 100 % of control | [5] 100 % of control | dose: 200.0 mg/kg/injection, schedule: Q01DX001 (ip), vehicle: saline 104 % of control | [6] 104 % of control | dose: 200.0 mg/kg/injection, schedule: Q04DX003 (ip), vehicle: saline 91 % of control | dose: 400.0 mg/kg/injection, schedule: Q01DX001 (ip), vehicle: saline 100 % of control | [7] 109 % of control | dose: 400.0 mg/kg/injection, schedule: Q04DX003 (ip), vehicle: saline 104 % of control

COc1ccc(C=NCCc2ccc(OC)c(OC)c2)cc1OC
inactive: [4] 97 % of control | [6] 97 % of control | [7] 105 % of control

O=C(N/N=C\c1c(Cl)cccc1Cl)c1ccccc1
inactive: dose: 50.0 mg/kg/injection, schedule: Q04DX003 (ip), vehicle: acetone 113 % of control | dose: 100.0 mg/kg/injection, schedule: Q04DX003 (ip), vehicle: acetone 95 % of control | dose: 200.0 mg/kg/injection, schedule: Q04DX003 (ip), vehicle: acetone 90 % of control

C/C(=N\[N+](C)(C)C)c1ccccc1
inactive: [3] 95 % of control | [5] 109 % of control

CC(C)(C)NC(=O)NCc1cccnc1
inactive: dose: 100.0 mg/kg/injection, schedule: Q04DX003 (ip), vehicle: saline with Tween-80 91 % of control | dose: 200.0 mg/kg/injection, schedule: Q04DX003 (ip), vehicle: saline with Tween-80 95 % of control | dose: 400.0 mg/kg/injection, schedule: Q04DX003 (ip), vehicle: saline with Tween-80 100 % of control
